As usually defined, the EC50 is the midpoint of the concentration-response curve. Low readings indicate greater potency, high ones weaker potency.

SMILES strings stand for the structures. Read-outs that look alike come from different tables or passages of the source.

One test concerns MM1S cells. The test can be described thus: Cell viability assay (ATPlite), MM1S. Type of test: cell-based, human. To be noted: Homo sapiens, MM1.S, 72 h, cell viability, three days, ATPlite; NA: inactive under assay conditions. In short, it runs like this:
(§1)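 Cells seeded at 60,000 cells/mL and dosed immediately by pin transfer in 10-point quadruplicate dose response from DMSO stocks. After three days at 37 °C, viability was read by ATPlite luminescence after 15 min at room temperature.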
(In general: Cellular ATP, detected with luciferase, serves as a proxy for viable cell number.)

The next test concerns the target c-Myc/Max/Ebox DNA (Homo sapiens, UniProt P01106). The test can be described thus: c-Myc/Max/Ebox DNA AlphaScreen assay. The format is binding. The arrangement: An exemplary assay uses full-length human c-Myc and Max proteins; his6 (cleaved yes); made in house. In short, it runs like this: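 Free c-Myc (25 nM), made by thrombin removal of the His6 tag, is pre-mixed with biotin-Ebox DNA (10 nM) and Ni acceptor beads before compound addition, then His6-Max (1.25 nM) and streptavidin donor beads are added. Buffer is HEPES pH 8.0 with BSA, Tween20, glycogen and DTT. Read after 2 h, excitation 680 nm, emission 520–620 nm.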

Another test deals with H2171 cells. The test can be described thus: Cell viability assay (ATPlite), H2171. Type of test: cell-based, human. Particulars: Homo sapiens, NCI-H2171, 72 h, cell viability, three days, ATPlite; NA: inactive under assay conditions. The procedure, abridged:
as §1

The next test has as its system Jurkat cells. The test can be described thus: Cell viability assay (ATPlite), Jurkat. Particulars: Homo sapiens, Jurkat; class symbols; NA: not active under assay conditions. The format is cell-based, human. The protocol:
This assay was used for the H2171 and MM1S cell data shown in Table 2, and for the Jurkat (an immortalized line of human T lymphocyte cells), Ly1 (OCI-Ly1 human non-Hodgkin lymphoma cell line), Ly4 (OCI-Ly4 human non-Hodgkin lymphoma cell line), H2172 (NCI-H2172 human non-small cell lung cancer cell line), and CA-46 (a human Burkitt's lymphoma cell line) cell data shown in Table 3 and FIG. 12. Cells were counted and adjusted to 60,000 cells/mL. Using a Biotek EL406, 50 μL of cells are media were distributed into 384 well white plates from Thermo. Immediately after plating, compound in DMSO was distributed to plates. For large plate sets, cells were returned to 37° C. incubator while not in use.
Compounds were added to plates using a 100 nL 384 well pin transfer manifold on a Janus workstation. Stocks were arrayed in 10 point quadruplicate dose response in DMSO stock in 384 well Greiner compound plates. After addition of compound, plates were incubated for three days in a 37° C. incubator.
Cell viability was read out using ATPlite from Perkin Elmer. Plates were removed from the incubator and brought to room temperature prior to use. Lyophilized powder was resuspended in lysis buffer and diluted 1:2 with DI water. 25 μL of this solution was added to each well using the Biotek liquid handler. Plates were sealed with adherent aluminum seals prior to vortexing and spinning down at 1000 g for 1 minute. Plates were incubated for 15 minutes at room temperature before signal was read on an Envision Plate Reader.

A further test has as its system protein:DNA complex. The test can be described thus: Comparative biochemical analyses of protein:DNA complex formation (FIG. 10). The format is binding. To be noted: FIG. 10, DNA intercalator comparison.
Setting [1] is: class symbols, NA: not active under assay conditions, read-out: Myc/Max IC50.

Chain of c-Myc/Max/Ebox DNA (P01106 16-454): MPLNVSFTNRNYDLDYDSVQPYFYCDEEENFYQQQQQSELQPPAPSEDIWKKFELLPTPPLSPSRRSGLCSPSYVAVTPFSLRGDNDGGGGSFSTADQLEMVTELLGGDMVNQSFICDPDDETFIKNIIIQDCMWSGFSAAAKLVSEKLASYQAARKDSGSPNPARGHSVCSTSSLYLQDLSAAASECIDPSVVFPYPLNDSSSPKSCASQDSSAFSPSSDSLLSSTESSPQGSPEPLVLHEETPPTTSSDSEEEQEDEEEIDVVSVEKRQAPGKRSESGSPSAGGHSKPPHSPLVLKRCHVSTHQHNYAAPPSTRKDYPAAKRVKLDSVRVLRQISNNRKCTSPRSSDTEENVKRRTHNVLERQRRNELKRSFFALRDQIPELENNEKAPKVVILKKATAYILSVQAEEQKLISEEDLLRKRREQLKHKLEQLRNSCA

Take `Cc1ccc(C)n1-c1ccccc1-c1nnn[nH]1` [Compound 162]: the EC50 in the test on MM1S cells is 66 µM; in the test with H2171 cells, 24.2 µM; with Jurkat cells, no less than 100 µM. The IC50 was 151 µM on c-Myc/Max/Ebox DNA (c-Myc/Max/Ebox DNA AlphaScreen, NA: inactive under assay conditions, read-out: Biochemical IC50) and no less than 100 µM at c-Myc/Max/Ebox DNA (setting [1]).

`Cc1ccc(C)n1-c1cc(-c2nnc(-c3cccc(C(=O)NS(C)(=O)=O)c3)o2)ccc1C(=O)O` [Compound 222]: on c-Myc/Max/Ebox DNA (setting [1]), the IC50 lay in the range of 10 to 100 µM. Besides, in the test with Jurkat cells, the EC50 fell in the range of 10 to 100 µM.

`Cc1ccc(C)n1-c1cc(C(=O)O)ccc1C(=O)NS(C)(=O)=O` [Compound 223]: on c-Myc/Max/Ebox DNA (setting [1]), the IC50 lay in the range of 10 to 100 µM. Further, the EC50 in the test on Jurkat cells is no less than 100 µM.

Regarding `Cc1ccc(C)n1-c1cc(-c2nnc(-c3ccc(O)c(O)c3O)o2)ccc1C(=O)O` [Compound 224], the IC50 at c-Myc/Max/Ebox DNA (setting [1]) was less than 1 µM. Further, in the test with Jurkat cells, the EC50 was less than 10 µM.

Consider `COc1cccc([C@H]2CN(C(=O)c3ccc(C(=O)O)c(-n4c(C)ccc4C)c3)C[C@@H]2O)c1` [Compound 225], for which the IC50 on c-Myc/Max/Ebox DNA (setting [1]) was no less than 100 µM. The molecule further yielded an EC50 in the test on Jurkat cells of 10 to 100 µM.

For `Cc1ccc(C)n1-c1cc(C(=O)N2CCN(C(=O)c3cncc(F)c3)CC2)ccc1C(=O)O` [Compound 226], the IC50 on c-Myc/Max/Ebox DNA (setting [1]) was 10 to 100 µM. This molecule returned an EC50 in the test with Jurkat cells of no less than 100 µM.

With `COc1cccc2c1C(=O)c1c(O)c3c(c(O)c1C2=O)C[C@@](O)(C(=O)CO)C[C@@H]3O[C@H]1C[C@H](N)[C@H](O)[C@H](C)O1` [doxorubicin], in the test on protein:DNA complex, the “protein:DNA complex formation” value is “non-specifically disrupts protein:DNA complex formation”.

Source of the values: patent US9567301B2, “Pyrrol-1-yl benzoic acid derivatives useful as myc inhibitors” (Whitehead Institute for Biomedical Research, priority 2012, dated 2017).
